Reference: patent US11591366B2, “Macrocyclic compounds and methods of preventing or treating pain” (SOCPRA SCIENCES SANTÉ ET HUMAINES S.E.C., priority 2017, dated 2023)
Where two headings read alike, the source gives them in different places. Numbered stars: 1 amine (or outer) side, 2 acyl side, 3 side chain; on linkers, the order of the positions; unused ones are H or OH. Square brackets hold non-standard residues; d marks the D form. Peptide text beside a SMILES is read from it. X3 = NCCCC[C@H](N)CN([C@@H](CCCCN)C(=O)[*:2])[*:1]; Tle = CC(C)(C)[C@H](N)C(=O)O

How the values were obtained:
Plasma stability assay = type: in vitro ADME; details: rat plasma at 37° C.
Experimental: Rat plasma was obtained by centrifugation of rat blood (13000 rpm, 5 min, 4° C.). […] Proteolytic degradation was quenched by adding 70 μL of acetonitrile/ethanol (1:1), 0.5% nicotinamide solution and vortexing. […] Data were analyzed using GraphPad Prism 7's one phase decay equation.

rNTS2 receptor = molecular target: T1, rNTS2 receptor (Rattus norvegicus, UniProt Q63384); assay: Competitive radioligand binding assay on the rNTS2 receptor; details: for inhibition at 1 µM: 1 μM macrocycle dose, read-out: NTS2 % displ at 1 μM (radiolabeled neurotensin displaced); for IC50: 125I-[Tyr3]-NT competition, rNTS2 membranes, read-out: NTS2 IC50
T1 construct: expressed in transfected cells; host or cells: DRG-F11 cells, transient transfection, membranes
T1 sequence (Q63384 1-416): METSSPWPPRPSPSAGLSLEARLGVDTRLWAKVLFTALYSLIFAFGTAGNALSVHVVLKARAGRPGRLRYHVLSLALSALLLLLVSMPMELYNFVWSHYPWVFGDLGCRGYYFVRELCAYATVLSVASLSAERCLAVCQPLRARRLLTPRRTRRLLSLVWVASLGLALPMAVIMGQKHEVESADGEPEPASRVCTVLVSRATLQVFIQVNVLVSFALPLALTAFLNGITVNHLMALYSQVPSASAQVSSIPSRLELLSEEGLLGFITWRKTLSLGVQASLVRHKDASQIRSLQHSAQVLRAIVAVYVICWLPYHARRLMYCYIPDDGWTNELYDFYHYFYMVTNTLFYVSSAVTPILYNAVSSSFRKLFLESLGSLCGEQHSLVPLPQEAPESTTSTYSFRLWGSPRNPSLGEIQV
Experimental: DRG-F11 cells were cultured in DMEM supplemented with 10% FBS, 100 U/mL penicillin, 100 μg/mL streptomycin, and 20 mM HEPES.
Membranes were prepared by scraping cells off the culture dish with 50 mM Tris ph 7.5 and centrifuged at 15,000 g for 5 min at 4° C. The pellet was resuspended in 10 mM Tris, 1 mM EDTA pH 7.5 and sonicated for 30 s prior to be centrifugated at 15,000 g for 30 min at 4° C. The pellet was then re-suspended in binding 9 buffer. […] All other steps in binding experiments were unchanged comparing to the one using the NTS1 receptor.

rats = assay: Blood pressure (hypotension); type: in vivo, rat; details: 0.01 mg/kg; for Arterial blood pressure response / Blood pressure drop, first phase / Blood pressure in phase 3: rat, i.v.
Experimental: Mean, systolic and diastolic arterial blood pressure and a heart rate were measured through a catheter (PE 50 filled with heparinized saline) inserted in the right carotid artery and connected to a Micro-Med™ transducer (model TDX-300, USA) linked to a blood pressure Micro-Med™ analyzer (model BPA-100c). Another catheter (PE 10 filled with heparinized saline) was inserted in the left jugular vein for injection of test compounds at 0.01 mg/kg (volume 1 mL/kg, 5-10 s) or 0.9% saline. Blood pressure was recorded each second for up to 900 seconds following intravenous injection.

[1] = molecular target: T2, hNTS1 (β-arrestin 1 recruitment) (Homo sapiens, UniProt P30989); assay: BRET biosensor assay, β-arrestin 1 recruitment; type: cell-based; details: CHO-K1 cells transiently transfected with hNTS1 and biosensors, mean ± SEM, read-out: EC50 β-arr1
T2 construct: expressed in transfected cells; host or cells: CHO-K1, transient transfection with PEI
Experimental: CHO-K1 cells were cultured in DMEM-F12 supplemented with 10% FBS, 100 U/mL penicillin, 100 μg/mL streptomycin, and 20 mM HEPES at 37° C. in a humidified chamber at 5% CO2. Cells were seeded into T75 flasks at a density of 20 000 cells/cm^2; 24 h later, cells were transfected with plasmids coding for hNTS1-Green fluorescent protein 10(GFP10)/Rluc (Renilla Luciferase)II-β-arrestin 1 or hNTS1-GFP10/RlucII-β-arrestin2, or with hNTS1/Gαq-RlucII/Gβ1/IGFP10-Gγ1 or hNTS1/Gα13-RlucII/Gβ1/GFP10-Gγ1 using polyethylenimine (PEI). Cells were transferred into 96-well plates at a concentration of 50 000 cells/well 24 h after transfection and incubated at 37° C. overnight. […] After stimulation, coelenterazine 400A was added in each well to a final concentration of 5 μM and the plate was read using filter selected for BRET2 measurement (BRET2 High efficiency filter set, λemRlucII: 410±80 nm, λemGFP10: 515±40 nm) on a Mithras 2 plate reader (Berthold Technologies, Tennessee, USA). BRET2 ratio was determined as GFP10em/RlucIIem. […] EC50 (Effective Concentration 50) values were determined using the dose response-stimulation log(agonist) vs response (three parameters) and represent the mean±SEM of at least three separate experiments, each performed in triplicate.
NTS1 is capable of activating several signaling pathways, thus the activation of Gαq, Gα13, β-arrestin 1 and β-arrestin 2 pathways was monitored. […]

hNTS1 receptor = hNTS1 receptor (Homo sapiens, UniProt P30989); assay: Competitive radioligand binding assay on the hNTS1 receptor; details: 125I-[Tyr3]-NT competition, hNTS1 membranes; mean ± SEM; read-out: NTS1 IC50
Experimental: CHO-K1 (Chinese Hamster Ovary) cells stably expressing hNTS1 (ES-690-C from PerkinElmer, Montréal, Canada) were cultured in DMEM F12 culture medium at 37° C. in a humidified chamber under 5% CO2. Culture media were supplemented with 10% FBS, 100 U/mL penicillin, 100 μg/mL streptomycin, 20 mM HEPES, and 0.4 mg/mL G418 at 37° C.
Cells were frozen when they reached 80% confluency. They were scrapped off the dish with 10 mM Tris buffer, 1 mM EDTA, pH 7.5 and centrifuged at 15,000 g for 5 min at 4° C. The pellet was then re-suspended in binding buffer.
Competitive radioligand binding experiments were performed by incubating 15 μg of cell membranes expressing the hNTS1 receptor with 45 pM of ^125I-[Tyr^3]-NT (2200 Ci/mmol purchased from PerkinElmer, Billerica, Mass.) in binding buffer (50 mM Tris-HCl, pH7.5, 0.2% BSA) in the presence of increasing concentrations of the compounds of the invention ranging from 10^−11 to 10^−4 M for 60 min at 25° C. […] Glass filters were then counted using a γ-counter (2470 Wizard2, PerkinElmer, Missisauga, Ontario, Canada).
IC50 (Inhibitory Concentration 50) values were determined from the competition curves as the unlabeled ligand concentration inhibiting half of the ^125I-[Tyr]-NT-specific binding. […]

[2] = molecular target: T3, hNTS1 (β-arrestin 2 recruitment) (Homo sapiens, UniProt P30989); assay: BRET biosensor assay, β-arrestin 2 recruitment; type: cell-based
T3 construct: expressed in transfected cells; host or cells: CHO-K1, transient transfection with PEI
Experimental: CHO-K1 cells were cultured in DMEM-F12 supplemented with 10% FBS, 100 U/mL penicillin, 100 μg/mL streptomycin, and 20 mM HEPES at 37° C. in a humidified chamber at 5% CO2. Cells were seeded into T75 flasks at a density of 20 000 cells/cm^2; 24 h later, cells were transfected with plasmids coding for hNTS1-Green fluorescent protein 10(GFP10)/Rluc (Renilla Luciferase)II-β-arrestin 1 or hNTS1-GFP10/RlucII-β-arrestin2, or with hNTS1/Gαq-RlucII/Gβ1/IGFP10-Gγ1 or hNTS1/Gα13-RlucII/Gβ1/GFP10-Gγ1 using polyethylenimine (PEI). Cells were transferred into 96-well plates at a concentration of 50 000 cells/well 24 h after transfection and incubated at 37° C. overnight. They were then washed with PBS and 90 μL HBSS was added in each well. […] After stimulation, coelenterazine 400A was added in each well to a final concentration of 5 μM and the plate was read using filter selected for BRET2 measurement (BRET2 High efficiency filter set, λemRlucII: 410±80 nm, λemGFP10: 515±40 nm) on a Mithras 2 plate reader (Berthold Technologies, Tennessee, USA). BRET2 ratio was determined as GFP10em/RlucIIem. […] EC50 (Effective Concentration 50) values were determined using the dose response-stimulation log(agonist) vs response (three parameters) and represent the mean±SEM of at least three separate experiments, each performed in triplicate.
NTS1 is capable of activating several signaling pathways, thus the activation of Gαq, Gα13, β-arrestin 1 and β-arrestin 2 pathways was monitored. The ability of compounds of the invention to activate the NTS1 receptor was assessed using Bioluminescence Resonance Energy Transfer (BRET)-based biosensors, reporting the dissociation of G proteins (Table III, column EC50 Gq) and the recruitment of β-arrestins to the receptor (Table III, column EC50 βarr).

[3] = 24 h is the longest time tested
[4] = BRET, CHO-K1 cells transiently transfected with hNTS1 and biosensors, mean ± SEM, read-out: EC50 β-arr2

T3 sequence (P30989 whole entry): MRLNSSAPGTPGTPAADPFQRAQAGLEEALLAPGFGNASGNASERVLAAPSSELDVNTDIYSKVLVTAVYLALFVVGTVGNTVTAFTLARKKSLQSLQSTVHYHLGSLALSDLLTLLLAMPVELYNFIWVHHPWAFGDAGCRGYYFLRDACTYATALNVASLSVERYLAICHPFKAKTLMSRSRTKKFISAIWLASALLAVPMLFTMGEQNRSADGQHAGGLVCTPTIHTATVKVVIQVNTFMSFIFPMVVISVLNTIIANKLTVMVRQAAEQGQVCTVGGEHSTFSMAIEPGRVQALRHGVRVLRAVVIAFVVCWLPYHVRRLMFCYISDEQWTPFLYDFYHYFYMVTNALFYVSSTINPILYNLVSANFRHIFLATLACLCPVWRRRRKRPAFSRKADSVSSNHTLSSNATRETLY
T3 sequence (P32121 whole entry partner): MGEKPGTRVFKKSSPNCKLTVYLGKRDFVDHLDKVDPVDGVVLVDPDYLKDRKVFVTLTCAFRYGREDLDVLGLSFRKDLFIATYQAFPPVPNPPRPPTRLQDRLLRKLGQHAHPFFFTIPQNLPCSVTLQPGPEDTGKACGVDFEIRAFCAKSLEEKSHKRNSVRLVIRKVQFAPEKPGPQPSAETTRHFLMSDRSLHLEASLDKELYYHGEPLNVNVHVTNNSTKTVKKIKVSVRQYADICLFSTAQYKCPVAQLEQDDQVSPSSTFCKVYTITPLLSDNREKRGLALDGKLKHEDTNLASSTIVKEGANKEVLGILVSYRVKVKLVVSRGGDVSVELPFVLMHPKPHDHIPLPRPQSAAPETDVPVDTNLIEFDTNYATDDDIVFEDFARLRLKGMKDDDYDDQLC
Chain of hNTS1 receptor (P30989 whole entry): as the sequence (P30989 whole entry) above
T2 sequence (P30989 whole entry): as above
T2 sequence (P49407 whole entry partner): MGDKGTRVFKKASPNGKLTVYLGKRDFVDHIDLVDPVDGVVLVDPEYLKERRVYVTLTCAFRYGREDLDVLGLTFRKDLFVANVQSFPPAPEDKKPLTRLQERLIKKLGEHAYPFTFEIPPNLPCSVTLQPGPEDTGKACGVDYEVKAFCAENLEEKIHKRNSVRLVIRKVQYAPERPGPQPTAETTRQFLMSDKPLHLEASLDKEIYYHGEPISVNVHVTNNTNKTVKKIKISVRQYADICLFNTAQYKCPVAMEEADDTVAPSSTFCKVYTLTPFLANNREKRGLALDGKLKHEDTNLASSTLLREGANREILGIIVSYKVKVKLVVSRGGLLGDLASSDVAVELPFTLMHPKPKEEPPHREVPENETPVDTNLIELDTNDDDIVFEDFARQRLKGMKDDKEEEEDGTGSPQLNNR

For `C=CCNCCCC[C@H](N)C(=O)N[C@@H](CCCCN)C(=O)N1CCC[C@H]1C(=O)N[C@@H](Cc1ccc(O)c(CC=C)c1)C(=O)N[C@H](C(=O)N[C@@H](CC(C)C)C(=O)O)C(C)CC` (stereo partly drawn) [Compound 2-L, K(All)KPY(All)IL], the Plasma half-life (Plasma stability assay) was 0.083 h.
Work on `C=CCNCCCC[C@H](N)C(=O)N[C@@H](CCCCN)C(=O)N1CCC[C@H]1C(=O)N[C@@H](Cc1ccc(O)c(CC=C)c1)C(=O)N[C@H](C(=O)N[C@@H](CC(C)C)C(=O)O)C(C)CC` (stereo partly drawn) [Compound 1-L, nonenoic acid KPY(All)IL] yielded a Plasma half-life (Plasma stability assay; [3]) of 4 h.
With `CCC(C)[C@H](NC(=O)[C@H](Cc1ccc(O)cc1)NC(=O)[C@@H]1CCCN1C(=O)[C@H](CCCNC(=N)N)NC(=O)[C@@H](N)CCCNC(=N)N)C(=O)N[C@@H](CC(C)C)C(=O)O` (stereo partly drawn) [NT 8-13, RRPYIL, reference compound] the half-life at […] (Plasma stability assay) was 0.05 h and the inhibition at 1 µM (rNTS2 receptor) was 100%.
With `CCOC(=O)[C@H](CC(C)C)NC(=O)[C@@H](NC(=O)[C@H](Cc1c[nH]c2ccccc12)NC(=O)[C@@H]1CCCN1C(=O)[C@H](CCCCN)NC[C@@H](N)CCCCN)C(C)(C)C` [PD149163, H-Lys-[ψCH2NH]-Lys-Pro-Trp-tertLeu-Leu-OEt, reference compound] (H-[X3]PW[Tle]L-OEt) the “Arterial blood pressure response” value (rats) was “triphasic”, the “Blood pressure drop, first phase” value (rats) was “about −25 mmHg” and the “Blood pressure in phase 3” value (rats) was “more sustained”.
Molecule `CCC(C)[C@H](NC(=O)[C@@H]1Cc2ccc(O)c(c2)CC=CCCNCCCC[C@H](N)C(=O)N[C@@H](CCCCN)C(=O)N2CCC[C@H]2C(=O)N1)C(=O)N[C@@H](CC(C)C)C(=O)O` (stereo partly drawn) [Compound 9, c[K(butenyl)KPY(All)]IL] has a half-life at […] (Plasma stability assay) of 0.25 h and an inhibition at 1 µM (rNTS2 receptor) of 104%.
In the case of `CCC(C)[C@H](NC(=O)[C@@H]1Cc2ccc(O)c(c2)CC=CCNCCCCCC(=O)N[C@@H](CCCCN)C(=O)N2CCC[C@H]2C(=O)N1)C(=O)N[C@@H](CC(C)C)C(=O)O` (stereo partly drawn) [Compound 6, c[aminohex-6-enoic acid(All)KPY(All)]IL], the EC50 [1] is reported as 96 ± 0.07 nM, the IC50 (hNTS1 receptor) is reported as 500 ± 22 nM and the EC50 [2, 4] is reported as 96 ± 0.05 nM. For the same molecule, the Plasma half-life (Plasma stability assay; [3]) was 24 h and the inhibition at 1 µM (rNTS2 receptor) was 93%.
Work on `CCC(C)[C@H](NC(=O)[C@@H]1Cc2ccc(O)c(c2)CC=CCCCNCCCC[C@H](N)C(=O)N[C@@H](CCCCN)C(=O)N2CCC[C@H]2C(=O)N1)C(=O)N[C@@H](CC(C)C)C(=O)O` (stereo partly drawn) [Compound 10, c[K(pentenyl)KPY(All)]IL] yielded a half-life at […] (Plasma stability assay) of 0.3 h and an inhibition at 1 µM (rNTS2 receptor) of 105%.
In the case of `CCC(C)[C@H](NC(=O)[C@@H]1Cc2ccc(O)c(c2)CC=CCCCCCCC(=O)N[C@@H](CCCNC(=N)N)C(=O)N2CCC[C@H]2C(=O)N1)C(=O)N[C@@H](CC(C)C)C(=O)O` (stereo partly drawn) [Compound 11, c[nonenoic acid-RPY(All)]IL], the inhibition at 1 µM (rNTS2 receptor) is reported as 78%.
In the case of `CCC(C)[C@H](NC(=O)[C@@H]1Cc2ccc(O)c(c2)CC=CCN(S(=O)(=O)c2ccccc2[N+](=O)[O-])CCCC[C@H](N)C(=O)N[C@@H](CCCCN)C(=O)N2CCC[C@H]2C(=O)N1)C(=O)N[C@@H](CC(C)C)C(=O)O` (stereo partly drawn) [Compound 5, c[K(All)(S(O)2(o-nitrophenyl))KPY(All)]IL], the half-life at […] (Plasma stability assay; [3]) is reported as 1.4 h, the inhibition at 1 µM (rNTS2 receptor) is reported as 96% and the IC50 (rNTS2 receptor) is reported as 511 nM.
For `CCC(C)[C@H](NC(=O)[C@H]1Cc2ccc(O)c(c2)CC=CCCCCCC[C@](C)(N)C(=O)N[C@@H](CCCCN)C(=O)N2CCC[C@H]2C(=O)N1)C(=O)N[C@@H](CC(C)C)C(=O)O` (stereo partly drawn) [Compound 12, c[OctenylAKPY(All)]IL], the IC50 (hNTS1 receptor) was > 10000 nM and the IC50 (rNTS2 receptor) was 1100 nM.
Molecule `CCC(C)[C@H](NC(=O)[C@@H]1Cc2ccc(O)c(c2)CC=CCNCCCC[C@@H](N)C(=O)N[C@@H](CCCCN)C(=O)N2CCC[C@H]2C(=O)N1)C(=O)N[C@@H](CC(C)C)C(=O)O` (stereo partly drawn) [Compound 4, c[K(All)KPY(All)]IL] has a Plasma half-life (Plasma stability assay; [3]) of 24 h and an inhibition at 1 µM (rNTS2 receptor) of 93%.
In the case of `CCC(C)[C@H](NC(=O)[C@@H]1Cc2ccc(O)c(c2)CC=CCCCCCCC(=O)N[C@@H](CCCCN)C(=O)N2CCC[C@H]2C(=O)N1)C(=O)NC(CC(C)C)C(=O)O` (stereo partly drawn) [Compound 1, c[nonenoic acid KPY(All)]IL], the EC50 [2, 4] is reported as 1370 ± 126 nM and the half-life at […] (Plasma stability assay; [3]) is reported as 12 h.
For `CCC(C)[C@H](NC(=O)[C@@H]1Cc2ccc(O)c(c2)CC=CCCCCCC[C@](C)(N)C(=O)N[C@@H](CCCCN)C(=O)N2CCC[C@H]2C(=O)N1)C(=O)N[C@@H](CC(C)C)C(=O)O` (stereo partly drawn) [Compound 3, c[OctenylAKPY(All)]IL], the EC50 [2] was 28 ± 0.1 nM, the Plasma half-life (Plasma stability assay; [3]) was 24 h and the “Hypotension (I.V.)” value (rats) was “Triphasique”. The “Arterial blood pressure response” value (rats) was “triphasic”, the “Blood pressure drop, first phase” value (rats) was “about −25 mmHg” and the “Blood pressure in phase 3” value (rats) was “slowly returned towards baseline”. It also gave an inhibition at 1 µM (rNTS2 receptor) of 96% and an IC50 (rNTS2 receptor) of 25.8 nM.
`CCC(C)[C@H](NC(=O)[C@@H]1Cc2ccc(O)c(c2)CC=CCNCC[C@H](N)C(=O)N[C@@H](CCCCN)C(=O)N2CCC[C@H]2C(=O)N1)C(=O)N[C@@H](CC(C)C)C(=O)O` (stereo partly drawn) [Compound 8, c[Dab(All)KPY(All)]IL] gave a half-life at […] (Plasma stability assay; [3]) of 2.5 h and an inhibition at 1 µM (rNTS2 receptor) of 64%.
